This note sets out measurements from article PMC7026418, “The kinase polypharmacology landscape of clinical PARP inhibitors” (Scientific Reports, 2020).

Like-named read-outs stand apart in the source and are kept apart here.

Among the targets are PIK3CA(M1043I) (Homo sapiens, UniProt P42336, M1043I); EGFR(S752-I759del) (Homo sapiens, UniProt P00533, DEL752-759); CAMK1G (Homo sapiens, UniProt Q96NX5); VRK2 (Homo sapiens, UniProt Q86Y07); MYLK (Homo sapiens, UniProt Q15746); CAMK1 (Homo sapiens, UniProt Q14012); ROS1 (Homo sapiens, UniProt P08922).
Assay in all cases: biochemical
Design in all cases: DiscoveRx KINOMEscan active site-directed competition binding; percent of control kinase bound to immobilised ligand

The target of a further assay is T1, ERK3 (Homo sapiens, UniProt Q16659).
T1 construct: gene MAPK6

In another assay the target is T2, CSNK1A1L (Homo sapiens, UniProt Q8N752).
T2 sequence (Q8N752 1-337): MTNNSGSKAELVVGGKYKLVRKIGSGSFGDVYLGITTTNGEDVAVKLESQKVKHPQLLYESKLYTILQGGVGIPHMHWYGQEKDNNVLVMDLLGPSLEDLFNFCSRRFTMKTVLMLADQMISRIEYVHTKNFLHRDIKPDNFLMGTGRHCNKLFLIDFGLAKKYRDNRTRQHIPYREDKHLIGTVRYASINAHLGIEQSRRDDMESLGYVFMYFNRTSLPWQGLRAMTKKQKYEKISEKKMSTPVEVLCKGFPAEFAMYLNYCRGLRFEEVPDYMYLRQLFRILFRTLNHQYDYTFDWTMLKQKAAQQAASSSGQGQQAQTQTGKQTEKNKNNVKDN

Another assay concerns the target T3, YANK2 (Homo sapiens, UniProt Q9NY57).
T3 construct: gene STK32B

In assay [1] the target is T4, RSK3(Kin.Dom.1-N-terminal) (Homo sapiens, UniProt Q15349).
T4 construct: gene RPS6KA2; Kin.Dom.1-N-terminal

The target in the next assay is T5, ANKK1 (Homo sapiens, UniProt Q8NFD2).
T5 sequence (Q8NFD2 1-765): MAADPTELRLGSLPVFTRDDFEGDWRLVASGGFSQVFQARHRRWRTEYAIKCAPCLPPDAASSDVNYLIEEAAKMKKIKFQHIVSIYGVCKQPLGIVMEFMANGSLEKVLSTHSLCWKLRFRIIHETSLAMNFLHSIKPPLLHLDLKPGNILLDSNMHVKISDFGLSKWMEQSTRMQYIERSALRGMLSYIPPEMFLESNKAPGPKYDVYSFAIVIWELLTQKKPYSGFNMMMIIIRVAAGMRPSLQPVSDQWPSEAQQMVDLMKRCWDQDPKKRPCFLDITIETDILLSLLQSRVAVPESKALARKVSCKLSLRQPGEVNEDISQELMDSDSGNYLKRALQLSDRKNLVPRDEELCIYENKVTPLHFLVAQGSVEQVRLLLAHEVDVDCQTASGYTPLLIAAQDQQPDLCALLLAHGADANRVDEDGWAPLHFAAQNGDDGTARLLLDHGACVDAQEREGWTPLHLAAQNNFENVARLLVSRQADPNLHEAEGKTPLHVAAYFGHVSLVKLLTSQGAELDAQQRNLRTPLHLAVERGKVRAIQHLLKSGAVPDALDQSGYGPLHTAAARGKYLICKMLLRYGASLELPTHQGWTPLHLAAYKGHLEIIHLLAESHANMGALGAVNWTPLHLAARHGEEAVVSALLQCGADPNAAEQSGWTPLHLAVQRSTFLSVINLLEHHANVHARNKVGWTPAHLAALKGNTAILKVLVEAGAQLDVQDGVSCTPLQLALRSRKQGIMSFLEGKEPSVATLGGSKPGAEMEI

[2] abbreviates: read-out: Niraparib (MK-4827) / %Ctrl @ 10000nM.
Setting [3] is: read-out: Talazoparib (BMN 673) / %Ctrl @ 10000nM.
[4] abbreviates: read-out: Rucaparib / %Ctrl @ 10000nM, binding competition, % of control.
Setting [5] is: read-out: Olaparib / %Ctrl @ 10000nM.

Chain of PIK3CA(M1043I) (P42336 whole entry M1043I): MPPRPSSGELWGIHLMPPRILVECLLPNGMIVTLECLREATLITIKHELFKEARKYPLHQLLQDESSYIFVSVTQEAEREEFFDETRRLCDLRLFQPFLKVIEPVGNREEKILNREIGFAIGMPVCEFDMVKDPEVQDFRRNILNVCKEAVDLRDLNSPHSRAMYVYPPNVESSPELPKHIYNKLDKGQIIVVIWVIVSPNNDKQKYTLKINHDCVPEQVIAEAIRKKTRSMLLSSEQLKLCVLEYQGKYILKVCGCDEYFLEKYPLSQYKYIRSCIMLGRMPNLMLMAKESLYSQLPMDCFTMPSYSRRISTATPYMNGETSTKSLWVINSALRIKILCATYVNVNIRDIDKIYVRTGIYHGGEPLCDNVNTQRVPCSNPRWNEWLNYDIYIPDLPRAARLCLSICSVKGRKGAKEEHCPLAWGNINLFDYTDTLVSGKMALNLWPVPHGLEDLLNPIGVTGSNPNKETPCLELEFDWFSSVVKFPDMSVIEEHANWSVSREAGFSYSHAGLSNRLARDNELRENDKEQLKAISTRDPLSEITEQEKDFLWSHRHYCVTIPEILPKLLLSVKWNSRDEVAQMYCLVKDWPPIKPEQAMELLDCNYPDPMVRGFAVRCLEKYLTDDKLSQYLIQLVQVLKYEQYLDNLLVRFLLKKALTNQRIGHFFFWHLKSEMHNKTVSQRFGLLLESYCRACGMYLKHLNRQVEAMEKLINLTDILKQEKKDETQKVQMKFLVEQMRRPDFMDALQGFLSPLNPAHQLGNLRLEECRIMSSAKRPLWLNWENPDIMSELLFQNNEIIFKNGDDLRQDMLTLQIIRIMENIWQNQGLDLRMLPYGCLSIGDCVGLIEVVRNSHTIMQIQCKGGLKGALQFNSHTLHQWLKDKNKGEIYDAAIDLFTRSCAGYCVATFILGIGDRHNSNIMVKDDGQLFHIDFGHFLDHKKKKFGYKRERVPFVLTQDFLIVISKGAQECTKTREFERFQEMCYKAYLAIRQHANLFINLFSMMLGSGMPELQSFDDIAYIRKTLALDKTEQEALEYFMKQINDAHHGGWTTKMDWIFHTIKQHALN
Chain of CAMK1G (Q96NX5 whole entry): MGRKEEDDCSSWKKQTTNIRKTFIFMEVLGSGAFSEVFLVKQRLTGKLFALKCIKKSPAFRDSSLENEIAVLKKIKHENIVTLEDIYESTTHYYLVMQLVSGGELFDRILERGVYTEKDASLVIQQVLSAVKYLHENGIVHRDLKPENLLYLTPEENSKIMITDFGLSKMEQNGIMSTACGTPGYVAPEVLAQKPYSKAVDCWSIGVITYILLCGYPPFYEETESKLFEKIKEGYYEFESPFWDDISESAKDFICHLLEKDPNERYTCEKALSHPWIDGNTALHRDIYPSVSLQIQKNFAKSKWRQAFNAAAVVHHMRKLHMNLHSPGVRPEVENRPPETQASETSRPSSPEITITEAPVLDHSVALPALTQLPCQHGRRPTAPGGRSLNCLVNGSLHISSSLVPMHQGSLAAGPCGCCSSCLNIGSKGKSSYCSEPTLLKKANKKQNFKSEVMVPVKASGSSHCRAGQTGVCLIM
T1 sequence (Q16659 whole entry): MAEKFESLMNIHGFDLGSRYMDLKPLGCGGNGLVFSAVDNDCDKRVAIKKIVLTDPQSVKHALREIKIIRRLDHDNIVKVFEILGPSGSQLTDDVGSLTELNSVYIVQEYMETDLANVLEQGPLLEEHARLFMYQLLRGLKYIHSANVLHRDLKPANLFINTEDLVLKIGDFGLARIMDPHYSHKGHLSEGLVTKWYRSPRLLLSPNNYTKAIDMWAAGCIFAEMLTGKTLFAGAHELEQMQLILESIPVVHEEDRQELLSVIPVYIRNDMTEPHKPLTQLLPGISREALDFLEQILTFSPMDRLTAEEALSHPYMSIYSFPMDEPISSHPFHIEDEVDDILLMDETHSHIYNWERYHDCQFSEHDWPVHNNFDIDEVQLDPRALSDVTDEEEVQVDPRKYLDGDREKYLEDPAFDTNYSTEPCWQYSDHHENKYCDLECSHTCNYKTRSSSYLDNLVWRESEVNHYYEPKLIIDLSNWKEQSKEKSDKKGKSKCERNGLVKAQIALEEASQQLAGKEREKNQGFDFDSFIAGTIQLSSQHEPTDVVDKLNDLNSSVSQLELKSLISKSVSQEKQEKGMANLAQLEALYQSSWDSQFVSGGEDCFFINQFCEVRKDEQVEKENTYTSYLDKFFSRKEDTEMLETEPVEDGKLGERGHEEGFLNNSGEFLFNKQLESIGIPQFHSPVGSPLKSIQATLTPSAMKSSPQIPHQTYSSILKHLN
T4 sequence (Q15349 whole entry): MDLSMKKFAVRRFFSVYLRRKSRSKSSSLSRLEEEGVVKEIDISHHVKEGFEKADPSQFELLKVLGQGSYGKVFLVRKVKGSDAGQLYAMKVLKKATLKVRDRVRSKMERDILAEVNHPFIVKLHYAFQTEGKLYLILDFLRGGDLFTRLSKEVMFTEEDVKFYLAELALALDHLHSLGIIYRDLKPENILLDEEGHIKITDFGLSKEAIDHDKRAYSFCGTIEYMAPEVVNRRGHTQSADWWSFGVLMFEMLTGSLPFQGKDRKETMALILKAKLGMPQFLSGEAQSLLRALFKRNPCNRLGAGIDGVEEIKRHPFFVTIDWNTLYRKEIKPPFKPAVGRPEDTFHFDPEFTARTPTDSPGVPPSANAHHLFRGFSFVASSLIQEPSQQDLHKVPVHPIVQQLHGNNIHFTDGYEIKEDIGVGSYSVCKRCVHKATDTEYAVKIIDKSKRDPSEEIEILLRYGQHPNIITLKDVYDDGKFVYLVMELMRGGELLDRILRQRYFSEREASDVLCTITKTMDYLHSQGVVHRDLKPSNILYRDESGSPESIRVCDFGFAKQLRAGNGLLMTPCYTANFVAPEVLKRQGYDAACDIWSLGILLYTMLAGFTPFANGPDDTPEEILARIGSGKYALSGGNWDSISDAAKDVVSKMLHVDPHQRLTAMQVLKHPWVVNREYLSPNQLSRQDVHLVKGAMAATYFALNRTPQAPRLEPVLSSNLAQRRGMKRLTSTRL
T3 sequence (Q9NY57 whole entry): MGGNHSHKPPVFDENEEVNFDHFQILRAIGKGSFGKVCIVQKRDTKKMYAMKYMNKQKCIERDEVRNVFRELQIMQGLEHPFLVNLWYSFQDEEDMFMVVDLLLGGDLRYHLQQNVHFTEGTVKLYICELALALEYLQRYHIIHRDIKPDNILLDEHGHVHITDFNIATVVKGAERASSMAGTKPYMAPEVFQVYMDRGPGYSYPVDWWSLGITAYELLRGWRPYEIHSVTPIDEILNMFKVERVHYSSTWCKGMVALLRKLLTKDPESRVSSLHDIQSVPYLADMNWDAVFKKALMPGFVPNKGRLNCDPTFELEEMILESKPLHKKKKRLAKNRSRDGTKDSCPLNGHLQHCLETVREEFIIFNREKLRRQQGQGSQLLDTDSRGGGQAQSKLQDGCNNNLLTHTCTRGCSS
Chain of CAMK1 (Q14012 whole entry): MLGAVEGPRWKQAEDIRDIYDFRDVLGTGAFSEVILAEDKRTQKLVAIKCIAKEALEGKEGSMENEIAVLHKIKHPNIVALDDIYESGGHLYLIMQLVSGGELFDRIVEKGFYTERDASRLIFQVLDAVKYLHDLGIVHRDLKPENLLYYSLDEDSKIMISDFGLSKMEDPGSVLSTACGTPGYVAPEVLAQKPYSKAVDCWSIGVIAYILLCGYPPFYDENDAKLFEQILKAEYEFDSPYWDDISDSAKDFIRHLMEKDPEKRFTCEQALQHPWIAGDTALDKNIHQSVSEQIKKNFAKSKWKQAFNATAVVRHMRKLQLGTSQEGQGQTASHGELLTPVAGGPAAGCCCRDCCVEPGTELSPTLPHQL
Chain of EGFR(S752-I759del) (P00533 with tags, fused parts or gaps DEL752-759): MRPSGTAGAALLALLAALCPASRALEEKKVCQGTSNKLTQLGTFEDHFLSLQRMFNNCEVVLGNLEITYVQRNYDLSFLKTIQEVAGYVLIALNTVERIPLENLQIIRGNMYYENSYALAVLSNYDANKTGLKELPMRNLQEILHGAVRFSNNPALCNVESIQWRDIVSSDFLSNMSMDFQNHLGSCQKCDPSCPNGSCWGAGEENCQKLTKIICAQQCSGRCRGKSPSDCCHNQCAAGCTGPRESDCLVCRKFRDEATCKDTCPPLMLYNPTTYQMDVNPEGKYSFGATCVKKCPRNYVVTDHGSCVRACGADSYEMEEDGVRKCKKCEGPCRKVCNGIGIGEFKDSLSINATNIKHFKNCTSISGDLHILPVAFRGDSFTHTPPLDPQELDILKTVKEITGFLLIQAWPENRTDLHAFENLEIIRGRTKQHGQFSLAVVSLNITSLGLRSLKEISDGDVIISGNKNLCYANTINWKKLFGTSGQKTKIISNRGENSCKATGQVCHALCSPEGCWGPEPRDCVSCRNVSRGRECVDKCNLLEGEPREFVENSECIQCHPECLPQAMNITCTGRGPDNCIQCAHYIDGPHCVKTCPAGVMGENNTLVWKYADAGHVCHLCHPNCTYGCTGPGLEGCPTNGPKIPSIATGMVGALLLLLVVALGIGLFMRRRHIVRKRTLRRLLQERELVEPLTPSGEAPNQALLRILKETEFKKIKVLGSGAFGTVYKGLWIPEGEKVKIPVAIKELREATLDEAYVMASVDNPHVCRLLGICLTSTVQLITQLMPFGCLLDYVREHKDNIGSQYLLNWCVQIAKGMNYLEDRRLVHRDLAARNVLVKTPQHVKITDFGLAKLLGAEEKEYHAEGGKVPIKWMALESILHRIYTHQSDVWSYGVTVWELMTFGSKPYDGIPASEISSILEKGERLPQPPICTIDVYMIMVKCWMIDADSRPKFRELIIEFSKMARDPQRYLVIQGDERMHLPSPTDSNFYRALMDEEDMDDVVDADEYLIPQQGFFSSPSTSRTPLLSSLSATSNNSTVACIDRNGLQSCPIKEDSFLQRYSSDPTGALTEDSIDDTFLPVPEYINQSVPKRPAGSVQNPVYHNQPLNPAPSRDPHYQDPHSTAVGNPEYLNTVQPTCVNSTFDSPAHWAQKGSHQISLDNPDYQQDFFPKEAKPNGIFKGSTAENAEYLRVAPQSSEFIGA

On to `NC(=O)c1cccc2cn(-c3ccc([C@@H]4CCCNC4)cc3)nc12` [Niraparib], for which the percent of control binding at 10 µM on ERK3 (setting [2]) was found to be 81%; at PIK3CA(M1043I) (setting [2]), 90%; on EGFR(S752-I759del) (setting [2]), 71%; on CAMK1G (setting [2]), 100%; at VRK2 (setting [2]) it was 65%; at CSNK1A1L (setting [2]) it was 76%. Also, the percent of control binding at 10 µM on MYLK (setting [2]) was found to be 73%; at CAMK1 (setting [2]), 80%; at ROS1 (setting [2]), 80%; at YANK2 (setting [2]), 100%; in assay [1] (setting [2]) it was 74%; on ANKK1 (setting [2]), 100%.

With `Cn1ncnc1[C@H]1c2n[nH]c(=O)c3cc(F)cc(c23)N[C@@H]1c1ccc(F)cc1` [Talazoparib], the percent of control binding at 10 µM worked out at 100% on ERK3 (setting [3]); 94% on PIK3CA(M1043I) (setting [3]); 100% at EGFR(S752-I759del) (setting [3]); 100% at CAMK1G (setting [3]); 100% on VRK2 (setting [3]); 100% at CSNK1A1L (setting [3]). The percent of control binding at 10 µM at MYLK (setting [3]) came to 77%; on CAMK1 (setting [3]), 95%; at ROS1 (setting [3]), 94%; at YANK2 (setting [3]) it was 91%; in assay [1] (setting [3]), 84%; at ANKK1 (setting [3]), 100%.

`CNCc1ccc(-c2[nH]c3cc(F)cc4c3c2CCNC4=O)cc1` [Rucaparib]: the percent of control binding at 10 µM on ERK3 (setting [4]) was found to be 90%; at PIK3CA(M1043I) (setting [4]), 77%; at EGFR(S752-I759del) (setting [4]) it was 89%; on CAMK1G (setting [4]), 89%; on VRK2 (setting [4]), 95%; at CSNK1A1L (setting [4]), 86%. Moreover, the percent of control binding at 10 µM at MYLK (setting [4]) was determined as 34%; on CAMK1 (setting [4]) it was 90%; on ROS1 (setting [4]) it was 82%; on YANK2 (setting [4]) it was 100%; in assay [1] (setting [4]) it was 99%; at ANKK1 (setting [4]), 71%.

As to `O=C(c1cc(Cc2n[nH]c(=O)c3ccccc23)ccc1F)N1CCN(C(=O)C2CC2)CC1` [Olaparib], the percent of control binding at 10 µM was 95% at ERK3 (setting [5]); 91% at PIK3CA(M1043I) (setting [5]); 84% at EGFR(S752-I759del) (setting [5]); 93% on CAMK1G (setting [5]); 99% on VRK2 (setting [5]); 99% on CSNK1A1L (setting [5]). The percent of control binding at 10 µM was 75% at MYLK (setting [5]); 100% on CAMK1 (setting [5]); 97% on ROS1 (setting [5]); 94% on YANK2 (setting [5]); 97% in assay [1] (setting [5]); 90% at ANKK1 (setting [5]).
